Read-outs that look alike come from different tables or passages of the source.
What was measured:
[1] = tested on: coronary angina caused by coronary obstruction (35% ferric chloride patch on left anterior descending coronary artery); assay: Anti-anginal activity, ferric chloride-induced coronary angina (ECG S-wave); assay type: in vivo, Male Wistar rats; details: Rattus norvegicus, po, read-out: Antianginal activity (% inhibition of S-wave decrease)
Method: Anti-Anginal Activity Assessment
Male Wistar rats weighing 250-300 g were used after an acclimatization period of five days, and animals were divided in groups of 8 for each treatment. In all experiments, rats were treated with 90 μmol/kg of each product by oral gavage using an administration volume of 10 ml/kg unless otherwise stated. The vehicle used to dissolve the products consisted of 1% Cremophor EL 27963, 1% Tween 80 and 0.5% Methocel E-15 in distilled water. […]
The procedure used to test the anti-anginal activity was that described by Hirata Y et al (Hirata Y, et al. Journal of Cardiovascular Pharmacology 1998, 31: 322-326).
After treatment, animals were anaesthetized with pentobarbital and electrodes were set for standard limb lead II electrocardiogram recording (Grass polygraph model 7, amplifier 7DA and pre-amplifier 7P1).
To induce coronary angina caused by coronary obstruction, a 35%-ferric chloride embedded mini patch was applied onto the left anterior descending coronary artery just below the left auricle. In all groups, after application of the patch, the ECG was recorded during 10 minutes. The shortening of the S-wave amplitude was measured on the recorded ECG. Data were collected with a Biopac system model MP100 connected to a Pentium PC. Results were expressed as % inhibition of S-wave decrease vs the untreated control.

[2] = tested on: thrombus formation in the carotid artery (70% FeCl3 patch); assay: Anti-thrombotic activity, FeCl3-induced carotid artery thrombosis; assay type: in vivo, Male Wistar rats; details: po, % animals protected, read-out: Antithrombotic activity (% protection); for responders at 90 µmol/kg: 90 μmol/kg p.o.
Method: Anti-Thrombotic Activity Assessment Experimental Procedure Male Wistar rats weighing 250-300 g were used after an acclimatization period of five days, and animals were divided in groups of 8 animals each for the treatments. […] The vehicle used to dissolve the products consisted of 1% Cremophor EL 27963, 1% Tween 80 and 0.5% Methocel E-15 in distilled water. After a fasting period of 8 hours with free access to drinking water each product was given by gavage 1 hour before induction of thrombosis. Thrombus formation was induced using a patch embedded with 70% FeCl3 solution applied onto the carotid artery using the same procedure described by Feuerstein G Z et al and later modified by Kurz et al (Feuerstein G Z, et al Artherioscler. Thromb. Vasc. Biol. 1999, 19: 2554-2562, Kurz K D, et al Thromb. Res. 1990, 60:269-280). Anti-thrombotic efficacy was evaluated at different times after dosage. Rats were anesthetized with sodium pentobarbital and then placed on a dorsal position over a thermal blanket laid on a surgical board and heated at 37° C. The left carotid artery was dissected and an electromagnetic blood flow probe was placed on the artery to measure blood flow. After application of the thrombotic stimuli, blood flow was monitored for the following 30 minutes. The vessel was considered occluded by the thrombus when flow reached 0.0 ml/min. Data were analysed by contingency tables using the Graph Pad Prism Program. P values were calculated using Fisher's exact test, values of p<0.05 were considered statistically significant. Results were expressed as % animals protected.

[3] = Rattus norvegicus, 0.5 h, ½ h after dosage
[4] = Rattus norvegicus, 1 h, 1 h after dosage
[5] = Rattus norvegicus, 2 h, 2 h after dosage
[6] = Rattus norvegicus, 4 h, 4 h after dosage
[7] = 1 h, rat, 90 μmol/kg p.o., 1 h, vs untreated control
[8] = 4 h, rat, 90 μmol/kg p.o., 4 h, vs untreated control
[9] = 2 h, rat, 90 μmol/kg p.o., 2 h, vs untreated control

| Compound | inhibition in vivo at 450 µmol/kg ([1]; 1 h, rat, 450 μmol/kg p.o., 1 h, vs untreated control) | responders at 90 µmol/kg [2, 3] | responders at 90 µmol/kg [2, 4] | responders at 90 µmol/kg [2, 5] | responders at 90 µmol/kg [2, 6] | inhibition in vivo at 90 µmol/kg [1, 7] | inhibition in vivo at 90 µmol/kg [1, 8] | inhibition in vivo at 90 µmol/kg ([1]; 0.5 h, rat, 90 μmol/kg p.o., ½ h, vs untreated control) | inhibition in vivo at 90 µmol/kg [1, 9] | responders at 230 µmol/kg ([2]; Rattus norvegicus, 1 h, 230 μmol/kg p.o., 1 h after dosage) | inhibition in vivo at 90 µmol/kg ([1]; 1 h) | inhibition in vivo at 90 µmol/kg ([1]; 4 h) | responders at 90 µmol/kg ([2]; rat, 1 h after dosage) |
| --- | --- | --- | --- | --- | --- | --- | --- | --- | --- | --- | --- | --- | --- |
| C[S@+]([O-])[C@H]1CO[C@H]2[C@@H]1OC[C@H]2O[N+](=O)[O-] [Comp 7, (3R,3aS,6S,6aS)-6-((S)-methylsulfinyl)hexahydrofuro[3,2-b]furan-3-yl nitrate, reference compound] | 73% | 0% | 0% | 0% | 0% | – | – | – | – | – | – | – | – |
| C[S@@+]([O-])[C@H]1CO[C@H]2[C@@H]1OC[C@H]2O[N+](=O)[O-] [Comp 6, (3R,3aS,6S,6aS)-6-((R)-methylsulfinyl)hexahydrofuro[3,2-b]furan-3-yl nitrate, reference compound] | – | 40% | 16% | 0% | 0% | 48% | 0% | – | – | – | – | – | – |
| O=[N+]([O-])O[C@@H]1CO[C@H]2[C@@H]1OC[C@@H]2S [Comp 1, (3R,3aS,6S,6aS)-6-(mercapto)hexahydrofuro[3,2-b]furan-3-yl nitrate, reference compound] | – | – | – | 32% | 16% | 0% | – | 0% | 50% | 50% | – | – | – |
| CCCS[C@H]1CO[C@H]2[C@@H]1OC[C@H]2O[N+](=O)[O-] [Ej. 2, (3R,3aS,6S,6aS)-6-(propylthio)hexahydrofuro[3,2-b]furan-3-yl nitrate] | – | – | 67% | – | – | 69% | 8% | – | – | – | – | – | – |
| CCCS(=O)(=O)[C@H]1CO[C@H]2[C@@H]1OC[C@H]2O[N+](=O)[O-] [Ej. 8, (3R,3aS,6S,6aS)-6-(propylsulfonyl)hexahydrofuro[3,2-b]furan-3-yl nitrate] | – | – | 100% | 50% | 0% | 77% | 25% | – | – | – | – | – | – |
| CCCS(=O)(=O)[C@@H]1CO[C@H]2[C@@H]1OC[C@H]2O[N+](=O)[O-] [Ej. 16, (3R,3aS,6R,6aS)-6-(propylsulfonyl)hexahydrofuro[3,2-b]furan-3-yl nitrate] | – | – | 40% | – | 20% | 32% | 30% | – | – | – | – | – | – |
| CC[S+]([O-])[C@H]1CO[C@H]2[C@@H]1OC[C@H]2O[N+](=O)[O-] (stereo partly drawn) [Ej. 4, (3R,3aS,6S,6aS)-6-((R,S)-ethylsulfinyl)hexahydrofuro[3,2-b]-furan-3-yl nitrate] | – | 32% | 67% | 83% | 50% | 84% | 43% | – | – | – | – | – | – |
| CC(=O)S[C@@H]1CO[C@H]2[C@@H]1OC[C@H]2O[N+](=O)[O-] [Ej. 10, S-(3R,3aS,6R,6aS)-6-(nitrooxy)hexahydrofuro[3,2-b]furan-3-yl ethanethioate] | – | 67% | 75% | 83% | 40% | 69% | 57% | – | – | – | – | – | – |
| CCS(=O)(=O)[C@H]1CO[C@H]2[C@@H]1OC[C@H]2O[N+](=O)[O-] [Ej. 7, (3R,3aS,6S,6aS)-6-(ethylsulfonyl)hexahydrofuro[3,2-b]furan-3-yl nitrate] | – | 50% | 84% | 32% | 0% | 81% | 23% | – | – | – | – | – | – |
| CCS(=O)(=O)[C@@H]1CO[C@H]2[C@@H]1OC[C@H]2O[N+](=O)[O-] [Ej. 15, (3R,3aS,6R,6aS)-6-(ethylsulfonyl)hexahydrofuro[3,2-b]furan-3-yl nitrate] | – | – | 9% | – | 0% | 21% | 0% | – | 0% | – | – | – | – |
| CCS[C@H]1CO[C@H]2[C@@H]1OC[C@H]2O[N+](=O)[O-] [Ej. 1, (3R,3aS,6S,6aS)-6-(ethylthio)hexahydrofuro[3,2-b]furan-3-yl nitrate] | – | – | – | – | – | – | – | – | – | – | 29% | 0% | 32% |
| CCC[S+]([O-])[C@H]1CO[C@H]2[C@@H]1OC[C@H]2O[N+](=O)[O-] (stereo partly drawn) [Ej. 5, (3R,3aS,6S,6aS)-6-((R,S)-propylsulfinyl)hexahydrofuro[3,2-b]furan-3-yl nitrate] | – | 40% | 76% | 67% | 50% | 87% | 58% | – | – | – | – | – | – |
| CCCS[C@@H]1CO[C@H]2[C@@H]1OC[C@H]2O[N+](=O)[O-] [Ej. 12, (3R,3aS,6R,6aS)-6-(propylthio)hexahydrofuro[3,2-b]furan-3-yl nitrate] | – | – | 32% | – | 16% | 14% | 0% | – | 0% | – | – | – | – |
| CCS[C@@H]1CO[C@H]2[C@@H]1OC[C@H]2O[N+](=O)[O-] [Ej. 11, (3R,3aS,6R,6aS)-6-(ethylthio)hexahydrofuro[3,2-b]furan-3-yl nitrate] | – | – | 66% | – | 0% | 41% | – | – | – | – | – | – | – |

— patent publication US8211939B2, “Isosorbide nitrates” (Lacer, S.A., priority 2008, dated 2012)
